This is an account of results in patent EP4640052A1 (BASF SE, priority 2024, dated 2025).

Test [1] deals with Alternaria solani (ALTESO). Put plainly: microbe, parasite or virus in culture. In kind it is cell-based.
Test [2] has as its system Pyricularia oryzae (PYRIOR). Put plainly: microbe, parasite or virus in culture. The format is cell-based. The conditions noted are these: for inhibition of growth at 0.004 ppm / inhibition of growth at 0.016 ppm / inhibition of growth at 0.063 ppm / inhibition of growth at 1 ppm / inhibition of growth at 0.25 ppm: Pyricularia oryzae, 168 h, read-out: Observed efficacy; for Observed efficacy: single active.

Test [3] relates to Pyrenophora teres (PYRNTE), Qol resistant (F129L). Put plainly: microbe, parasite or virus in culture. In kind it is cell-based. Conditions: for inhibition of growth at 0.016 ppm / inhibition of growth at 0.063 ppm / inhibition of growth at 0.25 ppm / inhibition of growth at 1 ppm: Pyrenophora teres, 168 h, read-out: Observed efficacy.
Test [4] concerns Sclerotinia sclerotiorum (SCLESC). The experiment in a line: microbe, parasite or virus in culture. The format is cell-based.
Test [5] concerns Monilinia sp. (MONISP). Put plainly: microbe, parasite or virus in culture. In kind it is cell-based.
Test [6] relates to Septoria tritici (SEPTTR). The experiment in a line: microbe, parasite or virus in culture. In kind it is cell-based.
For test [7], the system named is Puccinia triticina (syn. P. recondita). Put plainly: Green house use example 9: curative control of brown rust on wheat (PUCCRT K4). In kind it is in vivo.
For test [8], the system named is Phakopsora pachyrhizi. Put plainly: Green house use example 13: curative control of soybean rust on soybeans (PHAKPA F129L K4). The format is in vivo.
Test [9] concerns Phakopsora pachyrhizi. The experiment in a line: Green house use example 14: protective control of soybean rust on soybeans (PHAKPA F129L P2). In kind it is in vivo. The conditions noted are these: single compound.
The mark [10] stands for this setting: Alternaria solani, 168 h, read-out: Observed efficacy.
The mark [11] stands for this setting: Sclerotinia sclerotiorum, 168 h, read-out: Observed efficacy.
The mark [12] stands for this setting: Monilinia, 168 h, read-out: Observed efficacy.
[13] abbreviates: Zymoseptoria tritici, 168 h, read-out: Observed efficacy.

“And” between values parts separate entries of the source, which are not always exact repeats. Equal entries are not always repeated.

As for `CO/C=C(/C(=O)OC)c1cccc(Cl)c1CO/N=C(\COC)c1ccc(F)cc1F` [I.6, Methyl (E)-2-[3-chloro-2-[[(Z)-[1-(2,4-difluorophenyl)-2-methoxy-ethylidene]amino]-oxymethyl]phenyl]-3-methoxy-prop-2-enoate], the inhibition of growth at 0.016 ppm in test [1] (setting [10]) was 10%; in test [2] it was 0%; in [3], 2%; in test [4] (setting [11]) it was 4%; in test [5] (setting [12]), 10%. The inhibition of growth at 0.063 ppm in [1] (setting [10]) is 18%; in test [2] it was 0%; in test [3] it was 27%; in test [4] (setting [11]) it was 5%; in test [5] (setting [12]) it was 7%. Besides, the inhibition of growth at 0.25 ppm amounted to 34% in test [1] (setting [10]) and 42% in test [3]. Also, in [2], the inhibition of growth at 0.004 ppm came to 0%. For the same compound, the inhibition of growth at 1 ppm in test [2] stood at 24%; in test [3] it was 54%; in test [4] (setting [11]) it was 47%.

For `CO/C=C(/C(=O)OC)c1cccc(C)c1CO/N=C(\COC)c1ccccc1` [I.3, Methyl (E)-3-methoxy-2-[2-[[(Z)-(2-methoxy-1-phenyl-ethylidene)amino]oxymethyl]-3-methyl-phenyl]prop-2-enoate], in test [1] (setting [10]), the inhibition of growth at 0.004 ppm amounted to 11%. Also, the inhibition of growth at 0.016 ppm amounted to 32% in test [1] (setting [10]); 33% in test [2]; 0% in test [6] (setting [13]); 26% in test [3]; 0% in test [4] (setting [11]). The inhibition of growth at 0.063 ppm in [1] (setting [10]) was found to be 59%; in test [6] (setting [13]) it was 21%; in test [3], 43%; in test [4] (setting [11]), 3%; in [5] (setting [12]), 51%. For the same compound, the inhibition of growth at 0.25 ppm turned out to be 49% in [6] (setting [13]), 51% in [3] and 2% in [4] (setting [11]). Besides, the inhibition of growth at 1 ppm in test [3] came out at 62%.

As to `Cc1cccc(-n2nnn(C)c2=O)c1COc1ccn(-c2ccc(Cl)cc2)n1` [metyltetraprole, reference compound], the Observed efficacy in test [1] is on record as 22; in test [2] (0.016 ppm), 30%; in test [2] (0.063 ppm) it was 70%; in test [5] it was 17.

For the compound mancozeb [reference compound], the Observed efficacy was 11% in test [2] (0.004 ppm); 34% in [2] (0.016 ppm); 54% in [2] (0.063 ppm); 18 and 19 and 13 in [6]; 59 in test [3]; 59 in test [4].

Regarding `CO/C=C(/C(=O)OC)c1cccc(Br)c1CO/N=C(\COC)c1ccccc1` [I.2, Methyl (E)-2-[3-bromo-2-[[(Z)-(2-methoxy-1-phenyl-ethylidene)amino]oxymethyl]-phenyl]-3-methoxy-prop-2-enoate], the inhibition of growth at 0.063 ppm in test [1] (setting [10]) turned out to be 36%; in test [2] it was 0%; in [3], 34%; in [4] (setting [11]), 7%; in [5] (setting [12]), 18%. The inhibition of growth at 0.016 ppm is 0% in test [2], 7% in [3] and 0% in test [5] (setting [12]). In addition, the figures for the inhibition of growth at 1 ppm in test [2], in test [3] and in [4] (setting [11]) were 31%, 60% and 41%, respectively. Further, the inhibition of growth at 0.25 ppm in [3] came out at 44%. In test [5] (setting [12]), the inhibition of growth at 0.001 ppm came out at 0%.

For `CC(O)(Cn1cncn1)c1ccc(Oc2ccc(Cl)cc2)cc1C(F)(F)F` (racemic) [mefentrifluconazole, reference compound], the Observed efficacy was 27 in [1]; 39 in [7] (1 ppm); 54 in test [7] (4 ppm); 0% in test [2] (0.063 ppm); 53% in test [2] (1 ppm); 40 and 22 in [3].

As to `CO/C=C(/C(=O)OC)c1cccc(F)c1CO/N=C(\COC)c1c(F)cc(F)cc1F` [I.8, Methyl (E)-2-[3-fluoro-2-[[(Z)-[2-methoxy-1-(2,4,6-trifluorophenyl)ethylidene]amino]-oxymethyl]phenyl]-3-methoxy-prop-2-enoate], the results for the inhibition of growth at 0.016 ppm in [1] (setting [10]), in test [2] and in test [3] were 2%, 0% and 1%, respectively. Moreover, the inhibition of growth at 0.063 ppm was 0% in [1] (setting [10]), 0% in test [2], 14% in test [3] and 0% in test [4] (setting [11]). For the same compound, the inhibition of growth at 0.25 ppm in test [1] (setting [10]) turned out to be 4%; in test [2] it was 2%; in [3], 20%; in test [5] (setting [12]), 42%. The inhibition of growth at 1 ppm in test [1] (setting [10]) was determined as 59%; in test [2], 18%; in test [3], 44%.

As for `OC(Cc1ccccc1Cl)(Cn1nc[nH]c1=S)C1(Cl)CC1` (centres unmarked) [prothioconazole, reference compound], in test [1] (setting [10]), the inhibition of growth at 0.25 ppm came out at 10% and the inhibition of growth at 1 ppm is 14%. Further, in [2], the inhibition of growth at 0.25 ppm is 1% and the inhibition of growth at 1 ppm stood at 12%. In addition, in test [6] (setting [13]), the inhibition of growth at 0.063 ppm came to 5% and the inhibition of growth at 0.25 ppm amounted to 67%. The inhibition of growth at 0.004 ppm in test [5] (setting [12]) stood at 19%.

Consider `CO/C=C(/C(=O)OC)c1cccc(Cl)c1CO/N=C(\COC)c1ccc(F)cc1` [I.5, Methyl-(E)-2-[3-chloro-2-[[(Z)-[1-(4-fluorophenyl)-2-methoxy-ethylidene]amino]-oxy¬imethyl]phenyl]-3-methoxy-prop-2-enoate], for which the Observed efficacy in test [2] (0.063 ppm) is 28%; in test [4] it was 0; in test [5], 56.

Turning to metarylpicoxamid, the Observed efficacy was 20 in test [8] (Trial 3, single compound, 1 ppm) and 66 in [8] (Trial 3, single compound, 2 ppm).

With `O=C(Nc1ccccc1F)c1ccc(-c2noc(C(F)(F)F)n2)cc1` [flufenoxadiazam, reference compound], the Observed efficacy in [2] (0.004 ppm) was 2%; in [6], 2 and 3; in test [3], 5; in test [8] (Trial 1, single compound, 2 ppm), 15; in test [8] (Trial 1, single compound, 4 ppm) it was 31; in test [8] (Trial 2, single compound, 2 ppm), 17. Further, the Observed efficacy in [8] (Trial 2, single compound, 4 ppm) came to 34; in test [9] (0.5 ppm), 0; in test [9] (2 ppm), 63.

With `N#Cc1c[nH]cc1-c1cccc2c1OC(F)(F)O2` [fludioxonil, reference compound], the inhibition of growth at 0.016 ppm in test [1] (setting [10]) came to 5%; in test [2] it was 35%. Moreover, the inhibition of growth at 0.063 ppm in [1] (setting [10]) amounted to 29%; in [2] it was 59%; in test [6] (setting [13]), 5%; in [3] it was 51%; in test [4] (setting [11]), 67%. For the same compound, the inhibition of growth at 0.004 ppm in test [2] and in test [5] (setting [12]) was 8% in each case. In addition, the inhibition of growth at 0.25 ppm came out at 59% in [2] and 5% in test [6] (setting [13]). Also, the inhibition of growth at 1 ppm in test [6] (setting [13]) is 0%.
